Results taken from ChEMBL document CHEMBL5291721, “A preclinical secondary pharmacology resource illuminates target-adverse drug reaction associations of marketed drugs” (Nat Commun, 2023).

Biological target: Bile salt export pump (Homo sapiens, UniProt O95342)
Type: functional
Note: assay procedure not described here.

Sequence of Bile salt export pump (O95342 whole entry): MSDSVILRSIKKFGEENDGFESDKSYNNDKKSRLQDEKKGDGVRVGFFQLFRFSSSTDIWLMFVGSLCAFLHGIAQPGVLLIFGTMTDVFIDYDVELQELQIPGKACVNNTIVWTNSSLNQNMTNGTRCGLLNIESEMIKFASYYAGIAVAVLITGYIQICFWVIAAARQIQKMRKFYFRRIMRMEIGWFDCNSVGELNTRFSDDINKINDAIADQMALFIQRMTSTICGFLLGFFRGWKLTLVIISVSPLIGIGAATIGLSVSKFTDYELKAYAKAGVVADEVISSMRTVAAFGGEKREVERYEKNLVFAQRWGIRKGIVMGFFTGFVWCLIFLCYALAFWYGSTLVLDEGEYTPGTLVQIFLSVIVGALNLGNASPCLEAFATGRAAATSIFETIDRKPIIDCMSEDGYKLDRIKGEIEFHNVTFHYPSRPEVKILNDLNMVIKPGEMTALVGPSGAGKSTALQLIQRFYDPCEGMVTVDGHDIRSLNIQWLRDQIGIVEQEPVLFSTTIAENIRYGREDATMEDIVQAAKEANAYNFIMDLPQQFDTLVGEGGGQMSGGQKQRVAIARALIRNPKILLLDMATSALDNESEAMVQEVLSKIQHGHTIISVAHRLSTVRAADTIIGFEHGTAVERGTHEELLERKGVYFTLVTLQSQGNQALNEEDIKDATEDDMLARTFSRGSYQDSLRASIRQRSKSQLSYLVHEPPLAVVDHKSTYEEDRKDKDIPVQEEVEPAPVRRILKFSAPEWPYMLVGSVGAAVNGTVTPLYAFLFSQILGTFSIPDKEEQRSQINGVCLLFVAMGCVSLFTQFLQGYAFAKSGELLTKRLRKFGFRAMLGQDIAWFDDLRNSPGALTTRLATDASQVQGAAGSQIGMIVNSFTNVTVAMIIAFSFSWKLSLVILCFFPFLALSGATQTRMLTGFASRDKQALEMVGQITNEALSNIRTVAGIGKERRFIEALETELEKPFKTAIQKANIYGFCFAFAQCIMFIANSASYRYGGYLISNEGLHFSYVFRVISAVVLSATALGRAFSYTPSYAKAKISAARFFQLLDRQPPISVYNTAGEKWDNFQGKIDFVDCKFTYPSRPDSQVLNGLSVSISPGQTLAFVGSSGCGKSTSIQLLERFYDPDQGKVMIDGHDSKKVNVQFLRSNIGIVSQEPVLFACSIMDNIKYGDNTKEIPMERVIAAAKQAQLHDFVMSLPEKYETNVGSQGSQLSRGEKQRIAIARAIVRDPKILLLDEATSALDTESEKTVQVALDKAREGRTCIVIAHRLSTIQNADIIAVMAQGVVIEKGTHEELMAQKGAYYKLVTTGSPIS

| Structure (SMILES) | AC50 |
| --- | --- |
| CCCN(CCC)CCc1cccc2c1CC(=O)N2 [ROPINIROLE] | > 300 µM |
| CCCN(CCc1cccs1)[C@H]1CCc2c(O)cccc2C1 [ROTIGOTINE] | 260 µM |
| CC[C@H]1OC(=O)[C@H](C)[C@@H](O[C@H]2C[C@@](C)(OC)[C@@H](O)[C@H](C)O2)[C@H](C)[C@@H](O[C@@H]2O[C@H](C)C[C@H](N(C)C)[C@H]2O)[C@](C)(O)C[C@@H](C)/C(=N\OCOCCOC)[C@H](C)[C@@H](O)[C@]1(C)O [ROXITHROMYCIN] | > 300 µM |
| CC(C)N(CCCCOCC(=O)NS(C)(=O)=O)c1cnc(-c2ccccc2)c(-c2ccccc2)n1 [SELEXIPAG] | 5.7 µM |
| CC(=O)S[C@@H]1CC2=CC(=O)CC[C@]2(C)[C@H]2CC[C@@]3(C)[C@@H](CC[C@@]34CCC(=O)O4)[C@H]12 [SPIRONOLACTONE] | 26 µM |
| Cc1cc(CC(=O)O)n(C)c1C(=O)c1ccc(Cl)cc1 [ZOMEPIRAC] | 72 µM |
